In patent US12203089B2, “Plants having increased tolerance to herbicides” (BASF SE, priority 2015, dated 2025):

How the values were obtained:
Type in all cases: in vivo
[1] = system: Brassica napus expressing BnaA03g55200D (SEQ ID 12) variant S1038F; assay: 6-well plate injury test, T1 seeds on vermiculite; settings: 7 days after treatment
[2] = system: Brassica napus expressing BnaA03g55200D (SEQ ID 12) variant S1041L; assay: 6-well plate injury test, T1 seeds on vermiculite; settings: 7 days after treatment
[3] = system: Arabidopsis thaliana expressing AtCesA3_S983F_S1040L (SEQ ID 3); assay: 48-well plate growth inhibition, T2 seeds, tolerance factor; settings: based on IC50 values of growth inhibition, seven to ten days after seeding
[4] = system: Brassica napus expressing BnaAnng01240D (SEQ ID 20) variant S1038F; assay: Greenhouse herbicide tolerance, pre emergent; settings: 7 days after treatment
Procedure: (§1) T1/T2 transgenic plants of Brassica napus containing cellulose synthase sequences or mutated gene variants thereof are tested for improved tolerance to herbicides in greenhouse studies with azine herbicides. For the pre-emergence treatment, the herbicides are applied directly after sowing by means of finely distributing nozzles. The containers are irrigated gently to promote germination and growth and subsequently covered with transparent plastic hoods until the plants have rooted. This cover causes uniform germination of the test plants, unless this has been impaired by the herbicides. For post emergence treatment, the test plants are first grown to a height of 3 to 15 cm, depending on the plant habit, and only then treated with the herbicides. For this purpose, the test plants are either sown directly, and grown in the same containers or they are first grown separately and transplanted into the test containers a few days prior to treatment.
(§2) Herbicide injury evaluations are taken at 1, 2 and 3 weeks after treatment. Plant biomass reduction is rated on a scale of 0% to 100%, 0% being no reduction of biomass compared to untreated control, and 100% being complete absence of biomass.

[5] = system: Brassica napus expressing BnaA03g52020D (SEQ ID 15) variant G1015R; assay: Greenhouse herbicide tolerance, pre emergent; settings: 7 days after treatment
Procedure: as §1, §2

Brassica napus wildtype [6] = assay: Greenhouse herbicide tolerance, pre emergent; settings: 1.95 g/ha, 7 days after treatment
Procedure: as §1, §2

[7] = system: Brassica napus expressing BnaAnng01240D (SEQ ID 20) variant S1041L; assay: Greenhouse herbicide tolerance, post emergent; settings: 7 days after treatment
Procedure: as §1, §2

[8] = system: Brassica napus expressing BnaA01g04600D (SEQ ID 21) variant G1012R; assay: 6-well plate injury test, T1 seeds on vermiculite; settings: BnaA01g04600D G1012R event 1, 7 days after treatment
Brassica napus wildtype [9] = assay: 6-well plate injury test, seeds on vermiculite
Procedure: Transgenic Brassica napus plants are assayed for improved tolerance to azine herbicides like e. g. 6-cyclopentyl-N4-(2,3,4,5,6-pentafluorophenyl)-1,3,5-triazine-2,4-diamine in 6-well plates. Therefore, 5-6 T1 seeds are sown on vermiculite and watered with half-strength murashige skoog nutrient solution, pH 5.8 (Murashige and Skoog (1962) Physiologia Plantarum 15: 473-497). Compounds are dissolved in dimethylsulfoxid (DMSO) and added to the medium (final DMSO concentration 0.1%). Multi well plates are incubated in a growth chamber at 22° C., 75% relative humidity and 110 μmol Phot*m^−2*s^−1 with 14: 10 h light: dark photoperiod. Growth inhibition is evaluated seven to ten days after seeding in comparison to wild type plants. Plant injury is rated on a scale of 0% to 100%, 0% being no injury and 100% being complete death.

**Q.** How did the average phytotox value ([1]; BnaA03g55200D S1038F event 1, 5*10^-8M) turn out when `Nc1nc(Nc2c(F)c(F)c(F)c(F)c2F)nc(C2CCCC2)n1` [6-cyclopentyl-N4-(2,3,4,5,6-pentafluorophenyl)-1,3,5-triazine-2,4-diamine] was run?
**A.** The average phytotox value was 40%.

**Q.** And the average phytotox value ([1]; BnaA03g55200D S1038F event 1, 10^-6M)?
**A.** Its average phytotox value is 80%.

**Q.** And the average phytotox value ([1]; BnaA03g55200D S1038F event 1, 10^-7M)?
**A.** Its average phytotox value is 75%.

**Q.** And the average phytotox value ([1]; BnaA03g55200D S1038F event 1, 10^-8M)?
**A.** The average phytotox value was 15%.

**Q.** What about the average phytotox value ([1]; BnaA03g55200D S1038F event 1, 10^-9M) of the same molecule?
**A.** The average phytotox value was 0%.

**Q.** What about the average phytotox value ([1]; BnaA03g55200D S1038F event 2, 5*10^-8M) of the same molecule?
**A.** Its average phytotox value is 65%.

**Q.** And the average phytotox value ([1]; BnaA03g55200D S1038F event 2, 10^-6M)?
**A.** Its average phytotox value is 90%.

**Q.** What about the average phytotox value ([1]; BnaA03g55200D S1038F event 2, 10^-7M) of the same molecule?
**A.** Its average phytotox value is 75%.

**Q.** And the average phytotox value ([1]; BnaA03g55200D S1038F event 2, 10^-8M)?
**A.** The average phytotox value was 0%.

**Q.** And the average phytotox value ([1]; BnaA03g55200D S1038F event 2, 10^-9M)?
**A.** Its average phytotox value is 0%.

**Q.** What about the average phytotox value ([1]; BnaA03g55200D S1038F event 3, 5*10^-8M) of the same molecule?
**A.** Its average phytotox value is 65%.

**Q.** What about the average phytotox value ([1]; BnaA03g55200D S1038F event 3, 10^-6M) of the same molecule?
**A.** The average phytotox value was 90%.

**Q.** And the average phytotox value ([1]; BnaA03g55200D S1038F event 3, 10^-7M)?
**A.** Its average phytotox value is 80%.

**Q.** And the average phytotox value ([1]; BnaA03g55200D S1038F event 3, 10^-8M)?
**A.** The average phytotox value was 0%.

**Q.** What about the average phytotox value ([1]; BnaA03g55200D S1038F event 3, 10^-9M) of the same molecule?
**A.** The average phytotox value was 0%.

**Q.** And the average phytotox value ([2]; BnaA03g55200D S1041L event 1, 5*10^-8M)?
**A.** Its average phytotox value is 35%.

**Q.** What about the average phytotox value ([2]; BnaA03g55200D S1041L event 1, 10^-6M) of the same molecule?
**A.** The average phytotox value was 95%.

**Q.** What about the average phytotox value ([2]; BnaA03g55200D S1041L event 1, 10^-7M) of the same molecule?
**A.** The average phytotox value was 75%.

**Q.** What about the average phytotox value ([2]; BnaA03g55200D S1041L event 1, 10^-8M) of the same molecule?
**A.** The average phytotox value was 0%.

**Q.** What about the average phytotox value ([2]; BnaA03g55200D S1041L event 1, 10^-9M) of the same molecule?
**A.** The average phytotox value was 0%.

**Q.** And the average phytotox value ([2]; BnaA03g55200D S1041L event 2, 5*10^-8M)?
**A.** Its average phytotox value is 50%.

**Q.** And the average phytotox value ([2]; BnaA03g55200D S1041L event 2, 10^-6M)?
**A.** The average phytotox value was 90%.

**Q.** And the average phytotox value ([2]; BnaA03g55200D S1041L event 2, 10^-7M)?
**A.** The average phytotox value was 80%.

**Q.** And the average phytotox value ([2]; BnaA03g55200D S1041L event 2, 10^-8M)?
**A.** Its average phytotox value is 10%.

**Q.** And the average phytotox value ([2]; BnaA03g55200D S1041L event 2, 10^-9M)?
**A.** Its average phytotox value is 0%.

**Q.** And the average phytotox value ([2]; BnaA03g55200D S1041L event 3, 5*10^-8M)?
**A.** Its average phytotox value is 60%.

**Q.** What about the average phytotox value ([2]; BnaA03g55200D S1041L event 3, 10^-6M) of the same molecule?
**A.** The average phytotox value was 85%.

**Q.** And the average phytotox value ([2]; BnaA03g55200D S1041L event 3, 10^-7M)?
**A.** The average phytotox value was 70%.

**Q.** And the average phytotox value ([2]; BnaA03g55200D S1041L event 3, 10^-8M)?
**A.** Its average phytotox value is 0%.

**Q.** What about the average phytotox value ([2]; BnaA03g55200D S1041L event 3, 10^-9M) of the same molecule?
**A.** Its average phytotox value is 0%.

**Q.** And the average phytotox value ([2]; BnaA03g55200D S1041L event 4, 5*10^-8M)?
**A.** Its average phytotox value is 50%.

**Q.** And the average phytotox value ([2]; BnaA03g55200D S1041L event 4, 10^-6M)?
**A.** Its average phytotox value is 85%.

**Q.** And the average phytotox value ([2]; BnaA03g55200D S1041L event 4, 10^-7M)?
**A.** The average phytotox value was 60%.

**Q.** And the average phytotox value ([2]; BnaA03g55200D S1041L event 4, 10^-8M)?
**A.** The average phytotox value was 10%.

**Q.** And the average phytotox value ([2]; BnaA03g55200D S1041L event 4, 10^-9M)?
**A.** The average phytotox value was 0%.

**Q.** And the “Relative tolerance rate as compared to non-transgenic Arabidopsis plants (non-transgenic = 1.0)” value [3]?
**A.** Its value is 10.

**Q.** And the average phytotox value ([4]; 1.95 g/ha)?
**A.** The average phytotox value was 1%.

**Q.** And the average phytotox value ([4]; 3.9 g/ha)?
**A.** The average phytotox value was 14%.

**Q.** And the average phytotox value ([4]; 7.8 g/ha)?
**A.** The average phytotox value was 8%.

**Q.** What about the average phytotox value ([4]; 15.6 g/ha) of the same molecule?
**A.** The average phytotox value was 26%.

**Q.** What about the average phytotox value ([5]; 1.95 g/ha) of the same molecule?
**A.** The average phytotox value was 27%.

**Q.** And the average phytotox value ([5]; 3.9 g/ha)?
**A.** Its average phytotox value is 0%.

**Q.** And the average phytotox value ([5]; 7.8 g/ha)?
**A.** Its average phytotox value is 0%.

**Q.** What about the average phytotox value ([5]; 15.6 g/ha) of the same molecule?
**A.** The average phytotox value was 21%.

**Q.** What about the average phytotox value (Brassica napus wildtype [6]) of the same molecule?
**A.** The average phytotox value was 18%.

**Q.** What does the source list for `Nc1nc(Nc2nc(F)c(F)c(Cl)c2F)nc(C2(F)CCCC2)n1` [N2-(4-chloro-3,5,6-trifluoro-2-pyridyl)-6-(1-fluorocyclopentyl)-1,3,5-triazine-2,4-diamine]?
**A.** average phytotox value ([7]; 7.8 g/ha): 6%; average phytotox value ([7]; 15.6 g/ha): 9%; average phytotox value ([7]; 31.25 g/ha): 54%; average phytotox value ([7]; 62.5 g/ha): 64%; average phytotox value ([8]; 5*10-7): 75%; average phytotox value ([8]; 5*10^-8M): 10%; average phytotox value ([8]; 10^-6M): 80%; average phytotox value ([8]; 10^-7M): 10%; average phytotox value ([8]; 10^-8M): 0%; Relative tolerance rate as compared to non-transgenic Arabidopsis plants (non-transgenic = 1.0) [3]: 4; average phytotox value (Brassica napus wildtype [9]; 5*10-7, 7 days after treatment): 78%; average phytotox value (Brassica napus wildtype [9]; 5*10^-8M, 7 days after treatment): 18%; average phytotox value (Brassica napus wildtype [9]; 10^-6M, 7 days after treatment): 85%; average phytotox value (Brassica napus wildtype [9]; 10^-7M, 7 days after treatment): 56%; average phytotox value (Brassica napus wildtype [9]; 10^-8M, 7 days after treatment): 8%
